Test results taken from patent US8987195B2 (priority 2012, dated 2015).
Like-named read-outs stand apart in the source and are kept apart here.

Legend:
HCV genotype 1b replicon = assay: HCV replicon assay, genotype 1b replicon EC50; type: cell-based, Hepatitis C virus; details: read-out: EC50 [gt-1b]
Method in brief: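 Replicon cells (Neo^r, some luciferase:Neo^r fusion); G418 removed at plating; compound dilution series, 24-48 h. Readout: RNA by 32P-probe hybridization/protection or TaqMan, normalized to cyclophilin A RNA, or luciferase. EC50 vs DMSO control, 4-parameter fit.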

[1] = molecular target: HCV NS3/4A protease genotype 1b (Hepatitis C virus genotype 1b, UniProt P26663); assay: HCV NS3/4A protease time-resolved fluorescence (TRF) assay, Ki against genotype 1b; type: biochemical
Method in brief: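 Enzyme 0.2 nM 1b / 0.4 nM A156T / 0.025 nM 3a; 30 min preinc. w/ cpd; 25 nM TRF peptide; 2.5 h RT; ex 340/em 615 time-delayed; 4-param IC50 → Ki = IC50/(1+[S]/KM).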

[2] = Hepatitis C virus, genotype 1b replicon
[3] = IC50 [gt-1b] (nM), NS3/4A genotype 1b, enzyme 0.2 nM
[4] = Hepatitis C virus, HCV replicon, genotype 1b
[5] = IC50 [gt-1b], NS3/4A protease TRF assay, genotype 1b enzyme 0.2 nM

Structure (SMILES): Cc1nc2c(F)cccc2c2c1O[C@]1(CC2)C[C@H]2C(=O)N[C@]3(C(=O)NS(=O)(=O)C4CC4)C[C@H]3/C=C\CCCCC[C@H](NC(=O)OC(C)(C)C)C(=O)N2C1 [Example 107, tert-butyl {(2R,6S,12Z,13aS,14aR,16aS)-14a-[(cyclopropylsulfonyl)carbamoyl]-7′-fluoro-5′-methyl-5,16-dioxo-1,1′,2′,5,6,7,8,9,10,11,13a,14,14a,15,16,16a-hexadecahydrospiro[cyclopropa[e]pyrrolo[1,2-a][1,4]diazacyclopentadecine-2,3′-pyrano[2,3-c]quinolin]-6-yl}carbamate]
- EC50 (HCV genotype 1b replicon; [2]): 3.48 nM
- IC50 [1, 3]: 0.014 nM

Structure (SMILES): COc1ccc2nc(C)c3c(c2c1)CC[C@]1(C[C@H]2C(=O)N[C@]4(C(=O)NS(=O)(=O)C5(C)CC5)C[C@H]4/C=C\CCCCC[C@H](Nc4ncccn4)C(=O)N2C1)O3 [Example 57, (2R,6S,13aS,14aR,16aS,Z)-9′-methoxy-5′-methyl-N-((1-methylcyclopropyl)sulfonyl)-5,16-dioxo-6-(pyrimidin-2-ylamino)-1′,2′,3,5,6,7,8,9,10,11,13a,14,14a,15,16,16a-hexadecahydro-1H-spiro[cyclopropa[e]pyrrolo[1,2-a][1,4]diazacyclopentadecine-2,3′-pyrano[2,3-c]quinoline]-14a-carboxamide]
- EC50 (HCV genotype 1b replicon; [2]): 9.23 nM
- IC50 [1, 3]: 0.137 nM

Structure (SMILES): CC1(S(=O)(=O)NC(=O)[C@@]23C[C@H]2/C=C\CCCCC[C@H](NC(=O)OC2CCCC2)C(=O)N2C[C@@]4(CCc5c(c(C6CC6)nc6c(F)cccc56)O4)C[C@H]2C(=O)N3)CC1 [Example 150, cyclopentyl [(2R,6S,12Z,13aS,14aR,16aS)-5′-cyclopropyl-7′-fluoro-14a-{[(1-methylcyclopropyl)sulfonyl]carbamoyl}-5,16-dioxo-1,1′,2′,5,6,7,8,9,10,11,13a,14,14a,15,16,16a-hexadecahydrospiro[cyclopropa[e]pyrrolo[1,2-a][1,4]diazacyclopentadecine-2,3′-pyrano[2,3-c]quinolin]-6-yl]carbamate]
- EC50 (HCV genotype 1b replicon; [2]): 0.195 nM
- IC50 [1, 3]: 0.013 nM

Structure (SMILES): CCc1nc2ccc(OC)cc2c2c1O[C@]1(CC2)C[C@H]2C(=O)N[C@]3(C(=O)NS(=O)(=O)C4(C)CC4)C[C@H]3/C=C\CCCCC[C@H](NC(=O)c3ccn(C(F)F)n3)C(=O)N2C1 [Example 468, (2R,6S,12Z,13aS,14aR,16aS)-6-({[1-(difluoromethyl)-1H-pyrazol-3-yl]carbonyl}amino)-5′-ethyl-9′-methoxy-N-[(1-methylcyclopropyl)sulfonyl]-5,16-dioxo-1,1′,2′,6,7,8,9,10,11,13a,14,15,16,16a-tetradecahydrospiro[cyclopropa[e]pyrrolo[1,2-a][1,4]diazacyclopentadecine-2,3′-pyrano[2,3-c]quinoline]-14a(5H)-carboxamide]
- EC50 (HCV genotype 1b replicon; [4]): 7.15 nM
- IC50 [1, 5]: 0.031 nM

Structure (SMILES): COc1ccc2nc(C(F)(F)F)c3c(c2c1)[C@](C)(F)C[C@]1(C[C@H]2C(=O)N[C@]4(C(=O)NS(=O)(=O)C5(C)CC5)C[C@H]4/C=C\CCCCC[C@H](NC(=O)OC(C)(C)C)C(=O)N2C1)O3 [Example 63, tert-Butyl ((1′R,2S,6S,13aS,14aR,16aS,Z)-1′-fluoro-9′-methoxy-1-methyl-14a-(((1-methylcyclopropyl)sulfonyl)carbamoyl)-5,16-dioxo-5′-(trifluoromethyl)-1′,2′,3,5,6,7,8,9,1011,13a,14,14a,15,16,16a-hexadecahydro-1H-spiro[cyclopropa[e]pyrrolo[1,2-a][1,4]diazacyclopentadecine-2,3′-pyrano[2,3-c]quinolin]-6-yl)carbamate]
- EC50 (HCV genotype 1b replicon; [2]): 0.245 nM
- IC50 [1, 3]: 0.007 nM

Structure (SMILES): Cc1nc2ccc(OC(F)(F)F)cc2c2c1O[C@]1(CC2)C[C@H]2C(=O)N[C@]3(C(=O)NS(=O)(=O)C4(C)CC4)C[C@H]3/C=C\CCCCC[C@H](NC(=O)OC(C)(C)C(F)(F)F)C(=O)N2C1 [Example 298, 1,1,1-trifluoro-2-methylpropan-2-yl [(2R,6S,12Z,13aS,14aR,16aS)-5′-methyl-14a-{[(1-methylcyclopropyl)sulfonyl]carbamoyl}-5,16-dioxo-9′-(trifluoromethoxy)-1,1′,2′,5,6,7,8,9,10,11,13a,14,14a,15,16,16a-hexadecahydrospiro[cyclopropa[e]pyrrolo[1,2-a][1,4]diazacyclopentadecine-2,3′-pyrano[2,3-c]quinolin]-6-yl]carbamate]
- EC50 (HCV genotype 1b replicon; [2]): 6.31 nM
- IC50 [1, 3]: 0.017 nM

Structure (SMILES): CCc1ccc2nc(C)c3c(c2c1)C(F)C[C@]1(C[C@H]2C(=O)N[C@]4(C(=O)NS(=O)(=O)C5(C)CC5)C[C@H]4/C=C\CCCCC[C@H](NC(=O)OC(C)(C)C)C(=O)N2C1)O3 (single isomer, unassigned) [Example 316]
- EC50 (HCV genotype 1b replicon; genotype 1b replicon): 2.63 nM
- IC50 [1, 3]: 0.008 nM

Structure (SMILES): CC(C)(C)OC(=O)N[C@H]1CCCCC/C=C\[C@@H]2C[C@@]2(C(=O)NS(=O)(=O)C2(C)CC2)NC(=O)[C@@H]2C[C@]3(CCc4c(cnc5ccccc45)O3)CN2C1=O [Example 99, tert-butyl [(2R,6S,12Z,13aS,14aR,16aS)-14a-{[(1-methylcyclopropyl)sulfonyl]carbamoyl}-5,16-dioxo-1,1′,2′,5,6,7,8,9,10,11,13a,14,14a,15,16,16a-hexadecahydrospiro[cyclopropa[e]pyrrolo[1,2-a][1,4]diazacyclopentadecine-2,3′-pyrano[2,3-c]quinolin]-6-yl]carbamate]
- EC50 (HCV genotype 1b replicon; [2]): 4.53 nM
- IC50 [1, 3]: 0.033 nM

Structure (SMILES): COc1ccc2nc(C(C)C)c3c(c2c1)[C@H](F)C[C@]1(C[C@H]2C(=O)N[C@]4(C(=O)NS(=O)(=O)C5(C)CC5)C[C@H]4/C=C\CCCCC[C@H](NC(=O)O[C@@H](C)C(C)C)C(=O)N2C1)O3 [Example 419, (2S)-3-methylbutan-2-yl [(1′R,2S,6S,12Z,13aS,14aR,16aS)-1′-fluoro-9′-methoxy-14a-{[(1-methylcyclopropyl)sulfonyl]carbamoyl}-5,16-dioxo-5′-(propan-2-yl)-1,1′,2′,5,6,7,8,9,10,11,13a,14,14a,15,16,16a-hexadecahydrospiro[cyclopropa[e]pyrrolo[1,2-a][1,4]diazacyclopentadecine-2,3′-pyrano[2,3-c]quinolin]-6-yl]carbamate]
- EC50 (HCV genotype 1b replicon; Hepatitis C virus, HCV replicon, genotype 1b, K+ salt): 1.75 nM
- IC50 ([1]; IC50 [gt-1b], NS3/4A protease TRF assay, genotype 1b enzyme 0.2 nM, K+ salt): 0.038 nM

Structure (SMILES): COc1ccc2c3c(c(C4CC4)nc2c1)O[C@]1(CC3)C[C@H]2C(=O)N[C@]3(C(=O)NS(=O)(=O)C4(C)CC4)C[C@H]3/C=C\CCCCC[C@H](NC(=O)OC(C)C)C(=O)N2C1 [Example 137, propan-2-yl [(2R,6S,12Z,13aS,14aR,16aS)-5′-cyclopropyl-8′-methoxy-14a-{[(1-methylcyclopropyl)sulfonyl]carbamoyl}-5,16-dioxo-1,1′,2′,5,6,7,8,9,10,11,13a,14,14a,15,16,16a-hexadecahydrospiro[cyclopropa[e]pyrrolo[1,2-a][1,4]diazacyclopentadecine-2,3′-pyrano[2,3-c]quinolin]-6-yl]carbamate]
- EC50 (HCV genotype 1b replicon; [2]): 1.71 nM
- IC50 [1, 3]: 0.025 nM

Structure (SMILES): Cc1nc2ccccc2c2c1O[C@]1(CC2)C[C@H]2C(=O)N[C@]3(C(=O)NS(=O)(=O)C4(C)CC4)C[C@H]3/C=C\CCCCC[C@H](NS(C)(=O)=O)C(=O)N2C1 [Example 229, (2R,6S,12Z,13aS,14aR,16aS)-5′-methyl-N-[(1-methylcyclopropyl)sulfonyl]-6-[(methylsulfonyl)amino]-5,16-dioxo-1,1′,2′,6,7,8,9,10,11,13a,14,15,16,16a-tetradecahydrospiro[cyclopropa[e]pyrrolo[1,2-a][1,4]diazacyclopentadecine-2,3′-pyrano[2,3-c]quinoline]-14a(5H)-carboxamide]
- EC50 (HCV genotype 1b replicon; [2]): 14.6 nM
- IC50 [1, 3]: 0.122 nM

Structure (SMILES): COc1ccnc(N[C@H]2CCCCC/C=C\[C@@H]3C[C@@]3(C(=O)NS(=O)(=O)C3(C)CC3)NC(=O)[C@@H]3C[C@]4(CCc5c(c(C)nc6ccc(OC)cc56)O4)CN3C2=O)c1 [Example 432, (2R,6S,12Z,13aS,14aR,16aS)-9′-methoxy-6-[(4-methoxypyridin-2-yl)amino]-5′-methyl-N-[(1-methylcyclopropyl)sulfonyl]-5,16-dioxo-1,1′,2′,6,7,8,9,10,11,13a,14,15,16,16a-tetradecahydrospiro[cyclopropa[e]pyrrolo[1,2-a][1,4]diazacyclopentadecine-2,3′-pyrano[2,3-c]quinoline]-14a(5H)-carboxamide]
- EC50 (HCV genotype 1b replicon; [4]): 7.5 nM
- IC50 [1, 5]: 0.091 nM

Structure (SMILES): COc1ccc2c3c(c(C4CC4)nc2c1)O[C@]1(CC3)C[C@H]2C(=O)N[C@]3(C(=O)NS(=O)(=O)C4(C)CC4)C[C@H]3/C=C\CCCCC[C@H](NC(=O)NC(C)(C)C)C(=O)N2C1 [Example 132, (2R,6S,12Z,13aS,14aR,16aS)-6-[(tert-butylcarbamoyl)amino]-5′-cyclopropyl-8′-methoxy-N-[(1-methylcyclopropyl)sulfonyl]-5,16-dioxo-1,1′,2′,6,7,8,9,10,11,13a,14,15,16,16a-tetradecahydrospiro[cyclopropa[e]pyrrolo[1,2-a][1,4]diazacyclopentadecine-2,3′-pyrano[2,3-c]quinoline]-14a(5H)-carboxamide]
- EC50 (HCV genotype 1b replicon; [2]): 1.41 nM
- IC50 [1, 3]: 0.002 nM
